# Test results as given in ChEMBL document CHEMBL1201861, “Genomics of Drug Sensitity in Cancer screening data, Wellcome Trust Sanger Institute”.
# Experiments:
# Assay in all cases: cells
# SCC-4 = assay type: functional, cell-based, Homo sapiens; details: Homo sapiens, SCC-4;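 further: growth inhibition of human SCC-4 cells, read out as cell viability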
# Description: SANGER: Inhibition of human SCC-4 cell growth in a cell viability assay.
# LB771-HNC = assay type: functional, cell-based, Homo sapiens; details: Homo sapiens, LB771-HNC;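 further: growth inhibition of LB771-HNC human cells, read out with a cell viability assay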
# HCC1187 = assay type: functional, cell-based, Homo sapiens; details: Homo sapiens, HCC1187;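 further: growth inhibition of HCC1187 cells, read out with a cell viability assay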
# Description: SANGER: Inhibition of human HCC1187 cell growth in a cell viability assay.
# NCI-H720 = assay type: functional, cell-based; details: Homo sapiens;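 further: growth inhibition of human NCI-H720 cells determined by a cell viability assay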
# Description: SANGER: Inhibition of human NCI-H720 cell growth in a cell viability assay.
# A101D = assay type: functional, cell-based, Homo sapiens; details: Homo sapiens, A101D;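 further: growth inhibition of the cell line, measured with a viability assay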
# Description: SANGER: Inhibition of human A101D cell growth in a cell viability assay.
# CAL-27 = assay type: functional, cell-based, Homo sapiens; details: Homo sapiens, CAL-27;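 further: Viability-based readout, IC50 reflecting inhibition of CAL-27 cell growth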
# Description: SANGER: Inhibition of human CAL-27 cell growth in a cell viability assay.
# T84 = assay type: functional, cell-based, Homo sapiens; details: Homo sapiens, T84;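 further: growth inhibition measured with a cell viability readout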
# Description: SANGER: Inhibition of human T84 cell growth in a cell viability assay.
# EW-1 = assay type: functional, cell-based, Homo sapiens; details: Homo sapiens, EW-1
# Description: SANGER: Inhibition of human EW-1 cell growth in a cell viability assay.
# RO82-W-1 = assay type: functional, cell-based, Homo sapiens; details: Homo sapiens, RO82-W-1;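 further: growth inhibition of human RO82-W-1 cells, measured with a cell viability assay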
# Description: SANGER: Inhibition of human RO82-W-1 cell growth in a cell viability assay.
# AGS = assay type: functional, cell-based, Homo sapiens; details: Homo sapiens, AGS;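 further: growth inhibition of AGS cells, determined with a cell viability assay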
# Description: SANGER: Inhibition of human AGS cell growth in a cell viability assay.
# SK-N-AS = assay type: functional, cell-based, Homo sapiens; details: Homo sapiens, SK-N-AS;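 further: growth inhibition of human SK-N-AS cells, measured with a cell viability assay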
# Description: SANGER: Inhibition of human SK-N-AS cell growth in a cell viability assay.
# RPMI-2650 = assay type: functional, cell-based, Homo sapiens; details: Homo sapiens, RPMI-2650
# Description: SANGER: Inhibition of human RPMI-2650 cell growth in a cell viability assay.
# U-266 = assay type: functional, cell-based; details: Homo sapiens
# Description: SANGER: Inhibition of human U-266 cell growth in a cell viability assay.
# D-247MG = assay type: functional, cell-based, Homo sapiens; details: Homo sapiens, D-247MG
# Description: SANGER: Inhibition of human D-247MG cell growth in a cell viability assay.
# HN = assay type: functional, cell-based, Homo sapiens; details: Homo sapiens, HN
# Description: SANGER: Inhibition of human HN cell growth in a cell viability assay.
# BT-474 = assay type: functional, cell-based, Homo sapiens; details: Homo sapiens, BT-474
# Description: SANGER: Inhibition of human BT-474 cell growth in a cell viability assay.
# UACC-893 = assay type: functional, cell-based, Homo sapiens; details: Homo sapiens, UACC-893
# Description: SANGER: Inhibition of human UACC-893 cell growth in a cell viability assay.
# ES1 = assay type: functional, cell-based, Homo sapiens; details: Homo sapiens, ES1;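 further: growth inhibition of ES1 cells, read out with a cell viability assay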
# Description: SANGER: Inhibition of human ES1 cell growth in a cell viability assay.
# JVM-2 = assay type: functional, cell-based; details: Homo sapiens;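 further: growth inhibition of JVM-2 cells determined by a cell viability assay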
# Description: SANGER: Inhibition of human JVM-2 cell growth in a cell viability assay.
# MSTO-211H = assay type: functional, cell-based, Homo sapiens; details: Homo sapiens, MSTO-211H
# Description: SANGER: Inhibition of human MSTO-211H cell growth in a cell viability assay.
# NCI-H2347 = assay type: functional, cell-based, Homo sapiens; details: Homo sapiens, NCI-H2347;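 further: growth inhibition of the cell line, read out with a cell viability assay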
# Description: SANGER: Inhibition of human NCI-H2347 cell growth in a cell viability assay.
# EW-11 = assay type: functional, cell-based, Homo sapiens; details: Homo sapiens, EW-11;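 further: growth inhibition of human EW-11 cells, measured with a cell viability assay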
# Description: SANGER: Inhibition of human EW-11 cell growth in a cell viability assay.
# LS-123 = assay type: functional, cell-based, Homo sapiens; details: Homo sapiens, LS-123
# RPMI-8226 = assay type: functional, cell-based; details: Homo sapiens
# Description: SANGER: Inhibition of human RPMI-8226 cell growth in a cell viability assay.
# NB14 = assay type: functional, cell-based; details: Homo sapiens;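 further: growth inhibition of NB14 cells measured with a cell viability assay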
# Description: SANGER: Inhibition of human NB14 cell growth in a cell viability assay.
# EW-24 = assay type: functional, cell-based; details: Homo sapiens;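 further: human EW-24 cancer cell line, growth inhibition read out via a cell viability assay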
# Description: SANGER: Inhibition of human EW-24 cell growth in a cell viability assay.
# P12-Ichikawa = assay type: functional, cell-based; details: Homo sapiens
# RPMI-7951 = assay type: functional, cell-based, Homo sapiens; details: Homo sapiens, RPMI-7951
# Description: SANGER: Inhibition of human RPMI-7951 cell growth in a cell viability assay.
# ABC-1 = assay type: functional, cell-based, Homo sapiens; details: Homo sapiens, ABC-1;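 further: growth inhibition of human ABC-1 cells, read out by a cell viability assay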
# Description: SANGER: Inhibition of human ABC-1 cell growth in a cell viability assay.
# LK-2 = assay type: functional, cell-based, Homo sapiens; details: Homo sapiens, LK-2;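 further: growth inhibition of LK-2 cells, read out with a viability assay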
# Description: SANGER: Inhibition of human LK-2 cell growth in a cell viability assay.
# 8305C = assay type: functional, cell-based, Homo sapiens; details: Homo sapiens, 8305C
# Description: SANGER: Inhibition of human 8305C cell growth in a cell viability assay.
# CAS-1 = assay type: functional, cell-based, Homo sapiens; details: Homo sapiens, CAS-1;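 further: growth inhibition of CAS-1 cells, measured with a cell viability assay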
# HOP-62 = assay type: functional, cell-based, Homo sapiens; details: Homo sapiens, HOP-62;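 further: cell growth inhibition determined with a viability assay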
# Description: SANGER: Inhibition of human HOP-62 cell growth in a cell viability assay.
# NY = assay type: functional, cell-based, Homo sapiens; details: Homo sapiens, NY
# Description: SANGER: Inhibition of human NY cell growth in a cell viability assay.
# MDA-MB-415 = assay type: functional, cell-based; details: Homo sapiens
# FaDu = assay type: functional, cell-based, Homo sapiens; details: Homo sapiens, FaDu;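 further: cell viability readout of growth inhibition in FaDu cells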
# Description: SANGER: Inhibition of human FADU cell growth in a cell viability assay.
# Panc1005 = assay type: functional, cell-based, Homo sapiens; details: Homo sapiens, Panc1005;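 further: growth inhibition of human PANC-10-05 cells, measured by a cell viability assay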
# Description: SANGER: Inhibition of human PANC-10-05 cell growth in a cell viability assay.
# SK-N-FI = assay type: functional, cell-based, Homo sapiens; details: Homo sapiens, SK-N-FI;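 further: cell viability assay measuring growth inhibition of human SK-N-FI cells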
# Description: SANGER: Inhibition of human SK-N-FI cell growth in a cell viability assay.
# HuCCT-1 = assay type: functional, cell-based, Homo sapiens, HuCCT1; details: Homo sapiens, HuCCT-1;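 further: growth inhibition of HuCCT-1 cells, read out by a cell viability assay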
# Description: SANGER: Inhibition of human HuCCT1 cell growth in a cell viability assay.
# AU565 = assay type: functional, cell-based, Homo sapiens; details: Homo sapiens, AU565;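 further: cell viability assay measuring growth inhibition of human AU565 cells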
# Description: SANGER: Inhibition of human AU565 cell growth in a cell viability assay.
# SW982 = assay type: functional, cell-based; details: Homo sapiens;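 further: growth inhibition of SW982 cells, read out with a cell viability assay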
# Description: SANGER: Inhibition of human SW982 cell growth in a cell viability assay.
# HCC2218 = assay type: functional, cell-based; details: Homo sapiens;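 further: cell viability assay read-out, with IC50 given as the concentration that inhibits growth of the cell line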
# Description: SANGER: Inhibition of human HCC2218 cell growth in a cell viability assay.
# NCI-H2342 = assay type: functional, cell-based; details: Homo sapiens;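 further: growth inhibition of the cancer cell line, determined with a cell viability assay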
# Description: SANGER: Inhibition of human NCI-H2342 cell growth in a cell viability assay.
# SF-539 = assay type: functional, cell-based, Homo sapiens; details: Homo sapiens, SF-539;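 further: Read-out is a cell viability assay, with IC50 reflecting inhibition of cell growth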
# Description: SANGER: Inhibition of human SF539 cell growth in a cell viability assay.
# MKN-28 = assay type: functional, cell-based, Homo sapiens; details: Homo sapiens, MKN-28;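 further: cell viability assay read-out, IC50 reflects suppression of growth of human MKN-28 cells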
# Becker = assay type: functional, cell-based, Homo sapiens; details: Homo sapiens, Becker;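 further: growth inhibition of Becker cells, read out with a cell viability assay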
# Description: SANGER: Inhibition of human Becker cell growth in a cell viability assay.
# DMS-79 = assay type: functional, cell-based; details: Homo sapiens;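 further: growth inhibition measured with a cell viability assay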
# Description: SANGER: Inhibition of human DMS-79 cell growth in a cell viability assay.
# NCI-H69 = assay type: functional, cell-based; details: Homo sapiens;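 further: growth inhibition of the cell line, read out with a cell viability assay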
# Description: SANGER: Inhibition of human NCI-H69 cell growth in a cell viability assay.
# CAMA-1 = assay type: functional, cell-based, Homo sapiens; details: Homo sapiens, CAMA-1;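 further: growth inhibition of CAMA-1 cells, read out with a cell viability assay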
# Description: SANGER: Inhibition of human CAMA-1 cell growth in a cell viability assay.
# M14 = assay type: functional, cell-based, Homo sapiens; details: Homo sapiens, M14;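 further: growth inhibition of M14 cells, read out with a cell viability assay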
# Description: SANGER: Inhibition of human M14 cell growth in a cell viability assay.
# HCE-4 = assay type: functional, cell-based, Homo sapiens; details: Homo sapiens, HCE-4;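 further: cell viability assay measuring inhibition of growth in the human HCE-4 cell line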
# Description: SANGER: Inhibition of human HCE-4 cell growth in a cell viability assay.
# CAPAN-1 = assay type: functional, cell-based, Homo sapiens; details: Homo sapiens, CAPAN-1;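 further: growth suppression of CAPAN-1 cells, read out by a cell viability assay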
# Description: SANGER: Inhibition of human CAPAN-1 cell growth in a cell viability assay.
# SK-UT-1 = assay type: functional, cell-based, Homo sapiens; details: Homo sapiens, SK-UT-1;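 further: growth inhibition of SK-UT-1 cells, measured by a cell viability assay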
# Description: SANGER: Inhibition of human SK-UT-1 cell growth in a cell viability assay.
structure (smiles),measurement,setting,value
CN(C)C/C=C/C(=O)Nc1cc2c(Nc3ccc(F)c(Cl)c3)ncnc2cc1O[C@H]1CCOC1 [AFATINIB],IC50,SCC-4,> 500 nM
same,IC50,LB771-HNC,> 500 nM
same,IC50,HCC1187,> 500 nM
same,IC50,NCI-H720,53.2 nM
same,IC50,A101D,> 500 nM
same,IC50,CAL-27,176 nM
same,IC50,T84,> 500 nM
same,IC50,EW-1,> 500 nM
same,IC50,RO82-W-1,> 500 nM
same,IC50,AGS,> 500 nM
same,IC50,SK-N-AS,> 500 nM
same,IC50,RPMI-2650,> 500 nM
same,IC50,U-266,> 500 nM
same,IC50,D-247MG,> 500 nM
same,IC50,HN,131 nM
same,IC50,BT-474,49.9 nM
same,IC50,UACC-893,119 nM
same,IC50,ES1,> 500 nM
same,IC50,JVM-2,> 500 nM
same,IC50,MSTO-211H,> 500 nM
same,IC50,NCI-H2347,> 500 nM
same,IC50,EW-11,> 500 nM
same,IC50,LS-123,> 500 nM
same,IC50,RPMI-8226,> 500 nM
same,IC50,NB14,> 500 nM
same,IC50,EW-24,> 500 nM
same,IC50,P12-Ichikawa,> 500 nM
same,IC50,RPMI-7951,> 500 nM
same,IC50,ABC-1,> 500 nM
same,IC50,LK-2,> 500 nM
same,IC50,8305C,> 500 nM
same,IC50,CAS-1,> 500 nM
same,IC50,HOP-62,> 500 nM
same,IC50,NY,> 500 nM
same,IC50,MDA-MB-415,> 500 nM
same,IC50,FaDu,> 500 nM
same,IC50,Panc1005,> 500 nM
same,IC50,SK-N-FI,> 500 nM
same,IC50,HuCCT-1,> 500 nM
same,IC50,AU565,85 nM
same,IC50,SW982,> 500 nM
same,IC50,HCC2218,9.87 nM
same,IC50,NCI-H2342,> 500 nM
same,IC50,SF-539,> 500 nM
same,IC50,MKN-28,> 500 nM
same,IC50,Becker,> 500 nM
same,IC50,DMS-79,> 500 nM
same,IC50,NCI-H69,215 nM
same,IC50,CAMA-1,> 500 nM
same,IC50,M14,> 500 nM
same,IC50,HCE-4,> 500 nM
same,IC50,CAPAN-1,> 500 nM
same,IC50,SK-UT-1,> 500 nM
O=C(NOCC1CC1)c1ccc(F)c(F)c1Nc1ccc(I)cc1Cl [CI-1040],IC50,SCC-4,> 10000 nM
same,IC50,LB771-HNC,> 10000 nM
same,IC50,HCC1187,> 10000 nM
same,IC50,NCI-H720,> 10000 nM
same,IC50,A101D,214 nM
same,IC50,CAL-27,2390 nM
same,IC50,T84,> 10000 nM
same,IC50,EW-1,> 10000 nM
same,IC50,RO82-W-1,> 10000 nM
same,IC50,AGS,117 nM
same,IC50,SK-N-AS,1080 nM
same,IC50,RPMI-2650,> 10000 nM
same,IC50,U-266,7560 nM
same,IC50,D-247MG,> 10000 nM
same,IC50,HN,2160 nM
same,IC50,BT-474,> 10000 nM
same,IC50,UACC-893,> 10000 nM
same,IC50,ES1,> 10000 nM
same,IC50,JVM-2,> 10000 nM
same,IC50,MSTO-211H,9960 nM
same,IC50,NCI-H2347,> 10000 nM
same,IC50,EW-11,> 10000 nM
same,IC50,LS-123,> 10000 nM
same,IC50,RPMI-8226,> 10000 nM
same,IC50,NB14,7670 nM
same,IC50,EW-24,> 10000 nM
same,IC50,P12-Ichikawa,612 nM
same,IC50,RPMI-7951,4260 nM
same,IC50,ABC-1,> 10000 nM
same,IC50,LK-2,> 10000 nM
same,IC50,8305C,7100 nM
same,IC50,CAS-1,> 10000 nM
same,IC50,HOP-62,> 10000 nM
same,IC50,NY,> 10000 nM
same,IC50,MDA-MB-415,> 10000 nM
same,IC50,FaDu,5560 nM
same,IC50,Panc1005,6280 nM
same,IC50,SK-N-FI,8810 nM
same,IC50,HuCCT-1,7010 nM
same,IC50,AU565,> 10000 nM
same,IC50,SW982,> 10000 nM
same,IC50,HCC2218,2650 nM
same,IC50,NCI-H2342,> 10000 nM
same,IC50,SF-539,> 10000 nM
same,IC50,MKN-28,> 10000 nM
same,IC50,Becker,> 10000 nM
same,IC50,DMS-79,> 10000 nM
same,IC50,NCI-H69,> 10000 nM
same,IC50,CAMA-1,> 10000 nM
same,IC50,M14,155 nM
same,IC50,HCE-4,> 10000 nM
same,IC50,CAPAN-1,> 10000 nM
same,IC50,SK-UT-1,8980 nM
